Read-outs that look alike come from different tables or passages of the source.

Data set [1] concerns sucker and stickleback. As to conditions: in vivo.
Data set [2] in a line: in vivo. As to conditions: chinook salmon.
The test system of data set [3] is threespine stickleback. The arrangement: species or system Gasterosteus aculeatus. The settings on record: in vivo.
Data set [4] concerns chinook salmon. As to conditions: in vivo.
Data set [5] has as its system threespine stickleback. Further details: species or system Gasterosteus aculeatus. The settings on record: in vivo, 5760 min.
Data set [6] has as its system salmonids.
Data set [7] has as its system steelhead trout. As to conditions: in vivo.
Data set [8] relates to bridgelip sucker. Briefly: Selectivity and safety indices of salmonids versus the bridgelip sucker. Type of data set: in vivo, Catastomus columbianus. As to conditions: steelhead trout; 24 h. From the text:
Delineation bioassays determined primarily the LC50 and LC100 of sucker and stickleback and the LC0 and LC50 of salmonids.
The statistical LC1, LC50, and LC99 were interpolated and/or extrapolated using probit graph paper to approximate the LC0, LC50, and LC100 when the latter set of values was not closely determined by single concentrations in a series.
The approximate LC50 and LC100 of the target fishes (threespine and brook sticklebacks and bridgelip and white suckers) are tabulated in Table 1. The 96-hour selectivity and safety indices of selected species of salmonids versus the three-spine stickleback are tabulated in Table 3.
Threespine stickleback, brook stickleback, bridgelip sucker, white sucker, chinook salmon, coho salmon, sockeye salmon, kokanee, Kamloops trout, cutthroat trout, and brook trout were treated with various concentrations of 2, 2, 2, 1-tetrachloroethyl diethyl phosphate and at various temperatures to determine approximate selectivity and safety indices. The approximate LC50 and LC100 of the target fishes (threespine and brook sticklebacks and bridgelip and white suckers) are tabulated in Table 5. The 96-hour selectivity and safety indices of selected species of salmonids versus the threespine stickleback are tabulated in Table 7.

The subject of data set [9] is bridgelip sucker. The arrangement: species or system Catastomus columbianus. The settings on record: in vivo.
Data set [10] relates to sucker and stickleback. As to conditions: cited from earlier work.
The conditions of data set [11]: published literature; cited from earlier work.
Data set [12] has as its system carp. As to conditions: used in ponds; cited from earlier work.

As usually defined, the LC50 is the concentration that kills 50% of the test population. Consider `CCOP(=O)(OCC)OC(Cl)=C(Cl)Cl` [2,2,1-trichlorovinyl diethyl phosphate], for which, in data set [1], the “activity relative to the dichloro-compounds” value is on record as “about 100 times”. In addition, the LC50 in data set [2] fell in the range of 0.018 to 0.02 µg/mL. For the same molecule, in data set [3], the median lethal concentration (LC50) is 0.008 µg/mL, the LC100 is ~11 µg/L and the toxicity to stickleback result is given as “almost as toxic to stickleback as 2,2,2,1-tetrachloroethyl diethyl phosphate”. The LC0 entry in [4] (chinook salmon) was “about 16 μg/l”.
Turning to `CCOP(=O)(OCC)OC(=C(Cl)Cl)P(=O)(OCC)OCC` [2,2-dichloro-1-diethyl phosphonovinyl diethyl phosphate], in [5], the “Safety index (LC0/LC100)” value is reported as 0.9. For the same molecule, the LC50 in data set [2] was 0.018 to 0.02 µg/mL; in [3], 0.008 µg/mL.
Turning to `CCOP(=O)(OCC)OC(Cl)CCl` (stereo not shown) [1,2-dichloroethyl diethyl phosphate], in data set [6] (in vivo), the harm to salmonids result is listed as “harmless to salmonids”. In data set [7], the “concentration below which almost no mortality occurred in trout” value is given as “below 3.0 mg/l” and the “concentration below which no mortality occurred in steelhead” value is “below 5.0 mg/l”. Further, the “selectivity/specificity for sucker and stickleback” value in data set [1] is “extremely selective for suckers and stickleback”. Besides, in data set [8], the safety index was found to be 10 and the selectivity index was found to be 35. For the same molecule, in data set [9], the “activity and selectivity of the two chemicals” value is “very similar”; the “concentration of 100% mortality of sucker” value was 0.1 mg/L; the “concentration of almost 100% mortality of sucker” value is 0.3 mg/L.
As to “O,O-diethyl S-(2,2-dichlorovinyl) thiophosphate”, in [6] (24-hour bioassays, about 15 C), the harm to salmonids result is “harmless to salmonids”. For the same molecule, in [7], the “concentration below which no mortality occurred in steelhead” value is “below 1.0 mg/l”. For the same molecule, the “selectivity/specificity for sucker and stickleback” value in data set [1] is “extremely selective for suckers and stickleback”. Moreover, in [9], the “activity and selectivity of the two chemicals” value is on record as “very similar”; the “concentration of 100% mortality of sucker” value is 0.1 mg/L.
As for `C=C(C)[C@H]1Cc2c(ccc3c2O[C@@H]2COc4cc(OC)c(OC)cc4[C@@H]2C3=O)O1` [rotenone], the “control of sucker and stickleback numbers by spot poisoning” value in data set [10] (background) was “ineffective in controlling sucker and stickleback numbers”.
`O=C(O)C(Cl)Cl` [dichloroacetic acid, reference compound]: in data set [4], the mortality result is “suffered no mortalities”.
Regarding `COP(=O)(OC)OC=C(Cl)Cl` [O,O-dimethyl O-(2,2-dichlorovinyl) phosphate], the “selectivity for stickleback or suckers” value in [10] (in vivo) was “no selectivity for stickleback or suckers”. Further, the carcinogenicity / residues result in data set [11] is given as “none suggest that DDVP is a carcinogen or concentrates residues”. In addition, in data set [12], the injury to carp entry is listed as “without injuring carp”.

Values taken from patent US4395969A (priority 1981, dated 1983).
